Results from US12240844B2 (Voronoi, Inc., priority 2019, dated 2025).

Key:
MDA-MB-231 cell line = assay: MDA-MB-231 cancer cell proliferation inhibition (Cell Titer-Glo); format: cell-based; conditions: Homo sapiens, MDA-MB-231 triple-negative breast cancer cell line, 72 hours
In short: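 GI50 comes from CellTiter-Glo luminescence, read 10 min after reagent addition at RT, following 72 h compound treatment. Eleven concentrations were used (⅓ steps, highest 10 μM final) on 2000 cells/well. MDA-MB-231 and MDA-MB-468 were grown in DMEM, SHP-77 in RPMI.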

TTK = target: T1, TTK (Homo sapiens, UniProt P33981); assay: TTK enzyme inhibition, ADP-Glo kinase assay; format: biochemical; design: purchased Signalchem T20-10G; conditions: ATP 5 μM
T1 sequence (P33981 1-857): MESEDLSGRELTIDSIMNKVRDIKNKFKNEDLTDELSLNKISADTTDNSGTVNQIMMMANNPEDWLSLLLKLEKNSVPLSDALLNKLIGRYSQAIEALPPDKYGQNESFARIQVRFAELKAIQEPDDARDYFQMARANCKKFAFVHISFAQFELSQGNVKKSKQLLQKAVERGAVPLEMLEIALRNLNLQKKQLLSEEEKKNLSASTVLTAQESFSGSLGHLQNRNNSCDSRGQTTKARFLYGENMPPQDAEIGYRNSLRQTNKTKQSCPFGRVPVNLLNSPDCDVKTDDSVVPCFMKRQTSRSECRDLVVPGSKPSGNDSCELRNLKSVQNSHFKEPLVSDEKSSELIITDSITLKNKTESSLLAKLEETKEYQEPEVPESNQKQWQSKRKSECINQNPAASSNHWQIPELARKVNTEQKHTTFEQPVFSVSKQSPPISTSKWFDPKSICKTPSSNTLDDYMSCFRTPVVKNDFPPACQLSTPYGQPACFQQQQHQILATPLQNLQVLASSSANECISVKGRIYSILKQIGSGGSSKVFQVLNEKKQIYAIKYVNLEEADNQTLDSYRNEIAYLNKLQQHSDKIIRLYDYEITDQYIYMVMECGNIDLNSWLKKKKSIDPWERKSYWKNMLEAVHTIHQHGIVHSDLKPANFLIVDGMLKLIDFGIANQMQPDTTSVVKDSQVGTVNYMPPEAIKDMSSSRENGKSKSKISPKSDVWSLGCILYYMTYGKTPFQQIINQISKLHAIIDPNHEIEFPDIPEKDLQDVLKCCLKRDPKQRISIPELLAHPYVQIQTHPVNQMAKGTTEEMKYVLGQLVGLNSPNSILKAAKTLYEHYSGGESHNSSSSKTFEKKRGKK
Method: In order to evaluate the inhibitory activity of the compounds according to the present invention on LRRK2, LRRK2 (G2019S), DYRK1, CLK1 and TTK kinases, the following experiment was performed.
Example compounds were reacted with the purified human TTK (Signalchem #T20-10G) enzyme to evaluate the enzyme inhibitory ability as follows. The reaction buffer was used as the composition of 40 mM Tris-HCl pH7.4, 20 mM MgCl2, 0.1 mg/ml BSA (5× kinase buffer, Signalchem #K03-09) and 50 μM DTT (Signalchem #D86-09B), and the reaction of all test materials was performed on the reaction buffer. The compound was diluted with 10 mM DMSO stock in […] by a serial dilution method, and the enzyme activity was measured at the final compound concentrations of 1, 0.333333, 0.111111, 0.037037, 0.012346, 0.004115, 0.001372, 0.000457, 0.000152, 0.000051 and 0.000017 μM. In the test, the human TTK (7.5 ng) enzyme was reacted with the purified ATP (5 μM, Promega #V6930) and an MBP enzyme substrate (0.2 μg, Signalchem M42-51N) at 25° C. for 4 hours, and then the enzyme activity was identified using the in vitro ADP-Glo™ kinase assay (Promega #V6930). The enzyme activity reaction liquid, an ADP-Glo reaction liquid and an enzyme potency detection solution were reacted in a ratio of 2:2:1, and the degree of inhibition of enzyme activity was measured by luminescence. The degree of inhibition of enzyme activity according to the treatment concentrations of the respective compounds was calculated based on the luminescence degree of the enzyme activity of a solvent control group that was not treated with the compound, where the concentration of each compound to inhibit enzyme activity inhibition by 50% was determined as an IC50 (nM) value and obtained using Prism (Version 8.2, GraphPad) software.
In the table below, the following designations were used for the evaluation of enzyme inhibitory ability.

human GST-CLK1 (129-end) = target: T2, human GST-CLK1 (129-end) (Homo sapiens, UniProt P49759); assay: GST-CLK1 enzyme inhibition, ADP-Glo kinase assay; format: biochemical; conditions: ATP 10 uM
T2 construct: purified human GST-CLK1 (129-end, Signalchem) enzyme; GST; purchased Signalchem
In short: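 ADP formation was read by ADP-Glo luminescence after 1 h at 25° C with 3 ng human GST-CLK1 (129-end), substrate and 10 uM ATP in Tris pH 7.4 buffer containing MgCl2, BSA and DTT. Inhibition relative to untreated solvent control gave IC50 (nM), run in triplicate.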

T2 sequence (P49759 129-484 limits assumed): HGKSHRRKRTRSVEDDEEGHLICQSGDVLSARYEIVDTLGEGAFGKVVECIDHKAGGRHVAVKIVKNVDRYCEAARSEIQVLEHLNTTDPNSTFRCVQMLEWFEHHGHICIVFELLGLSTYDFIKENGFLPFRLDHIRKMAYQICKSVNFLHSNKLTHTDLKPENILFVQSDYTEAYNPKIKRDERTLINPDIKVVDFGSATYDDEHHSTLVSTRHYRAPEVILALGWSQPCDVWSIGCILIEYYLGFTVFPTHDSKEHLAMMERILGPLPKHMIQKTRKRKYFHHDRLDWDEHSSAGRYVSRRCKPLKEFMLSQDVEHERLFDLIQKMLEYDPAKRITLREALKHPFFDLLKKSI

SMILES | GI50 (MDA-MB-231 cell line) [nM] | IC50 (TTK) [nM] | IC50 (human GST-CLK1 (129-end)) [nM]
CCNc1cc(Nc2ccc(C(=O)N3CCC(N4CCOCC4)CC3)c3c2OCC3)nc2[nH]cc(C(F)(F)F)c12 [Example 90, (7-((4-(ethylamino)-3-(trifluoromethyl)-1H-pyrrolo[2,3-b]pyridin-6-yl)amino)-2,3-dihydrobenzofuran-4-yl)(4-morpholinopiperidin-1-yl)methanone] | 301 to 1000 | < 100 | < 100
O=C(c1ccc(Nc2cc(C3CC3)c3c(C(F)(F)F)c[nH]c3n2)c2c1CCO2)N1CCC(N2CCOCC2)CC1 [Example 93, (7-((4-cyclopropyl-3-(trifluoromethyl)-1H-pyrrolo[2,3-b]pyridin-6-yl)amino)-2,3-dihydrobenzofuran-4-yl)(4-morpholinopiperidin-1-yl)mthanone] | 301 to 1000 | 301 to 1000 | < 100
CCCNc1cc(Nc2ccc(C(=O)N3CCC(N4CCOCC4)CC3)c3c2OCCO3)nc2[nH]cc(C(F)(F)F)c12 [Example 162, (4-morpholinopiperidin-1-yl)(8-((4-(propylamino)-3-(trifluoromethyl)-1H-pyrrolo[2,3-b]pyridin-6-yl)amino)-2,3-dihydrobenzo[b] [1,4]dioxin-5-yl)methanone] | – | – | < 100
O=C(c1ccc(Nc2cc(NC3CC3)c3c(C(F)(F)F)c[nH]c3n2)c2c1CCO2)N1CCC(N2CCOCC2)CC1 [Example 92, (7-((4-(cyclopropylamino)-3-(trifluoromethyl)-1H-pyrrolo[2,3-b]pyridin-6-yl)amino)-2,3-dihydrobenzofuran-4-yl)(4-morpholinopiperidin-1-yl)methanone] | 301 to 1000 | < 100 | < 100
O=C(c1ccc(Nc2cc(C3CC3)c3c(C(F)(F)F)c[nH]c3n2)c2c1OCO2)N1CCC(N2CCOCC2)CC1 [Example 49, (7-((4-cyclopropyl-3-(trifluoromethyl)-1H-pyrrolo[2,3-b]pyridin-6-yl)amino)benzo[d][1,3]dioxol-4-yl)(4-morpholinopiperidin-1-yl)methanone] | 301 to 1000 | < 100 | < 100
COCCNc1cc(Nc2ccc(P3(=O)CCN(C4CC4)CC3)cc2OC)nc2[nH]cc(C#N)c12 [Example 148, 6-((4-(1-cyclopropyl-4-oxido-1,4-azaphosphinan-4-yl)-2-methoxyphenyl)amino)-4-((2-methoxyethyl)amino)-1H-pyrrolo[2,3-b]pyridine-3-carbonitrile] | 301 to 1000 | < 100 | 301 to 1000
O=C(c1ccc(Nc2cc(C3CC3)c3c(C(F)(F)F)c[nH]c3n2)c2c1CCO2)N1CC[C@H](N2CCOCC2)C1 [Example 237, (S)-(7-((4-cyclopropyl-3-(trifluoromethyl)-1H-pyrrolo[2,3-b]pyridin-6-yl)amino)-2,3-dihydrobenzofuran-4-yl)(3-morpholinopyrrolidin-1-yl)methanone] | 301 to 1000 | 101 to 300 | –
CCNc1cc(Nc2ccc(P3(=O)CCN(C4CCOCC4)CC3)cc2OC)nc2[nH]cc(C(F)(F)F)c12 [Example 94, 4-(4-((4-(ethylamino)-3-(trifluoromethyl)-1H-pyrrolo[2,3-b]pyridin-6-yl)amino)-3-methoxyphenyl)-1-(tetrahydro-2H-pyran-4-yl)-1,4-azaphosphinane 4-oxide] | 301 to 1000 | – | 101 to 300
O=C(c1ccc(Nc2cc(C3CC3)c3c(C(F)(F)F)c[nH]c3n2)c2c1CCO2)N1CC[C@@H](N2CCOCC2)C1 [Example 238, (R)-(7-((4-cyclopropyl-3-(trifluoromethyl)-1H-pyrrolo[2,3-b]pyridin-6-yl)amino)-2,3-dihydrobenzofuran-4-yl)(3-morpholinopyrrolidin-1-yl)methanone] | 301 to 1000 | < 100 | –
CCNc1cc(Nc2ccc(S(=O)(=O)N3CCC(N4CCOCC4)CC3)c3c2OCCO3)nc2[nH]cc(C(F)(F)F)c12 [Example 96, N^4-ethyl-N^6-(8-((4-morpholonopiperidin-1-yl)sulfonyl)-2,3-dihydrobenzo [b] [1,4]dioxin-5-yl)-3-(trifluoromethyl)-1H-pyrrolo[2,3-b]pyridine-4,6-diamine] | 301 to 1000 | – | 101 to 300
COc1cc(S(=O)(=O)N2CCC(N3CCOCC3)CC2)ccc1Nc1cc(NCCS(C)(=O)=O)c2c(C(F)(F)F)c[nH]c2n1 [Example 194, N^6-(2-methoxy-4-((4-morpholinopiperidin-1-yl)sulfonyl)phenyl)-N^4-(2-(methylsulfonyl)ethyl)-3-(trifluoromethyl)-1H-pyrrolo[2,3-b]pyridine-4,6-diamine] | 301 to 1000 | – | < 100
CNc1cc(Nc2ccc(S(=O)(=O)N3CCC(N4C[C@H]5C[C@@H]4CO5)CC3)cc2OC)nc2[nH]cc(C(F)(F)F)c12 [Example 243, N^6-(4-((4-((1R,4R)-2-oxa-5-azabicyclo[2.2.1]heptan-5-yl)piperidin-1-yl)sulfonyl)-2-methoxyphenyl)-N^4-methyl-3-(trifluoromethyl)-1H-pyrrolo[2,3-b]pyridine-4,6-diamine] | 101 to 300 | – | < 100
CNc1cc(Nc2ccc(S(=O)(=O)N3CCC(N4CCOCC4)CC3)cc2OC)nc2[nH]cc(C(F)(F)F)c12 [Example 184, N^6-(2-methoxy-4-((4-morpholinopiperidin-1-yl)sulfonyl)phenyl)-N^4-methyl-3-(trifluoromethyl)-1H-pyrrolo[2,3-b]pyridine-4,6-diamine] | 301 to 1000 | < 100 | –
CCNc1cc(Nc2ccc(C(=O)N3CCC(N4CCOCC4)CC3)c3c2OCO3)nc2[nH]cc(C(F)(F)F)c12 [Example 37, (7-((4-(ethylamino)-3-(trifluoromethyl)-1H-pyrrolo[2,3-b]pyridin-6-yl)amino)benzo[d][1,3]dioxol-4-yl)(4-morpholinopiperidin-1-yl)methanone] | 301 to 1000 | – | < 100
CCNc1cc(Nc2ccc(P3(=O)CCN(C4CC4)CC3)cc2OC)nc2[nH]cc(C(F)(F)F)c12 [Example 206, 1-cyclopropyl-4-(4-((4-(ethylamino)-3-(trifluoromethyl)-1H-pyrrolo[2,3-b]pyridin-6-yl)amino)-3-methoxyphenyl)-1,4-azaphosphinane 4-oxide] | – | – | 301 to 1000
CNc1cc(Nc2ccc(C(=O)N3CCC(N4CCOCC4)CC3)c3c2OCCO3)nc2[nH]cc(C(F)(F)F)c12 [Example 160, (8-((4-(methylamino)-3-(trifluoromethyl)-1H-pyrrolo[2,3-b]pyridin-6-yl)amino)-2,3-dihydrobenzo [b] [1,4]dioxin-5-yl)(4-morpholinopiperidin-1-yl)methanone] | – | – | < 100
O=C(c1ccc(Nc2cc(C3CC3)c3c(C(F)(F)F)c[nH]c3n2)c2c1CCO2)N1CCOCC1 [Example 91, (7-((4-cyclopropyl-3-(trifluoromethyl)-1H-pyrrolo[2,3-b]pyridin-6-yl)amino)-2,3-dihydrobenzofuran-4-yl)(morpholino) methanone] | 301 to 1000 | 301 to 1000 | –
